Laboratory results published in US10472358B2, “1H-pyrrolo[2,3-c]pyridin-7(6H)-ones and pyrazolo[3,4-c]pyridin-7(6H)-ones as inhibitors of BET proteins” (Incyte Corporation, priority 2014, dated 2019).

system: KMS.12.BM cells; test: KMS.12.BM cell viability assay (Cell Titer-GLO, ATP quantitation); type: cell-based; settings: KMS-12-BM, 72 h; human myeloma cells, 3 days, concentration required for 50% cell death
Description: Example B1: KMS.12.BM Cell Viability Assay
KMS.12.BM cell line (human myeloma) was purchased from JCRB (Osaka, Japan) and maintained in RPMI with 10% FBS culture medium. To measure the cytotoxic activity of the compounds through ATP quantitation, the KMS.12.BM cells are plated in the RPMI culture medium at 5000 cells/well/per 100 μL into a 96-well polystyrene clear black tissue culture plate (Greiner-bio-one through VWR, NJ), in the presence or absence of a concentration range of test compounds. After 3 days, […] Cell Titer-GLO Luminescent (Promega, Madison, Wis.) cell culture agent is added to each well for 10 minutes at room temperature to stabilize the luminescent signal. This determines the number of viable cells in culture based on quantitation of the ATP present, which signals the presence of metabolically active cells. Luminescence is measured with the Top Count 384 (Packard Bioscience through Perkin Elmer, Boston, Mass.). Compound inhibition is determined relative to cells cultured with no drug and the IC50 is reported as the compound concentration required for 50% cell death.

Row | Compound | IC50
1 | COc1cc2c(c(-c3cn(C)c(=O)c4[nH]ccc34)c1)OC(C(C)C)C(=O)N2 (single isomer, unassigned) [Example 9A, 2-isopropyl-6-methoxy-8-(6-methyl-7-oxo-6,7-dihydro-1H-pyrrolo[2,3-c]pyridin-4-yl)-2H-1,4-benzoxazin-3(4H)-one] | ≤ 1000 nM
2 | COc1cc2c(c(-c3cn(C)c(=O)c4[nH]ccc34)c1)OC(c1ccccc1)C(=O)N2 (single isomer, unassigned) [Example 24A, 6-methoxy-8-(6-methyl-7-oxo-6,7-dihydro-1H-pyrrolo[2,3-c]pyridin-4-yl)-2-phenyl-2H-1,4-benzoxazin-3(4H)-one] | ≤ 1000 nM
3 | COc1cc2c(c(-c3cn(C)c(=O)c4[nH]ccc34)c1)OC(C1CCCC1)C(=O)N2 (single isomer, unassigned) [Example 35A, 2-Cyclopentyl-6-methoxy-8-(6-methyl-7-oxo-6,7-dihydro-1H-pyrrolo[2,3-c]pyridin-4-yl)-2H-1,4-benzoxazin-3(4H)-one] | ≤ 1000 nM
4 | COc1cc2c(c(-c3cn(C)c(=O)c4[nH]ncc34)c1)OC(C1CCCC1)C(=O)N2 (single isomer, unassigned) [Example 42A, 2-cyclopentyl-6-methoxy-8-(6-methyl-7-oxo-6,7-dihydro-1H-pyrazolo[3,4-c]pyridin-4-yl)-2H-1,4-benzoxazin-3(4H)-one] | ≤ 1000 nM
5 | CC(C)C1Oc2c(cc(S(C)(=O)=O)cc2-c2cn(C)c(=O)c3[nH]ccc23)NC1=O (single isomer, unassigned) [Example 44A, 2-isopropyl-8-(6-methyl-7-oxo-6,7-dihydro-1H-pyrrolo[2,3-c]pyridin-4-yl)-6-(methylsulfonyl)-2H-1,4-benzoxazin-3(4H)-one] | ≤ 1000 nM
6 | CC(C)C1Oc2c(-c3cn(C)c(=O)c4[nH]ccc34)cc(S(C)(=O)=O)cc2N(C)C1=O (single isomer, unassigned) [Example 47A, 2-isopropyl-4-methyl-8-(6-methyl-7-oxo-6,7-dihydro-1H-pyrrolo[2,3-c]pyridin-4-yl)-6-(methylsulfonyl)-2H-1,4-benzoxazin-3(4H)-one] | ≤ 1000 nM
7 | CC(O)c1cc(-c2cn(C)c(=O)c3[nH]ccc23)c2c(c1)N(C)C(=O)C(C)(C)O2 (single isomer, unassigned) [Example 83A, 6-(1-hydroxyethyl)-2,2,4-trimethyl-8-(6-methyl-7-oxo-6,7-dihydro-1H-pyrrolo[2,3-c]pyridin-4-yl)-2H-1,4-benzoxazin-3(4H)-one] | ≤ 1000 nM
8 | Cn1cc(-c2cccc3c2OC(c2ccccc2)C(=O)N3)c2cc[nH]c2c1=O (centres unmarked) [Example 1, 8-(6-methyl-7-oxo-6,7-dihydro-1H-pyrrolo[2,3-c]pyridin-4-yl)-2-phenyl-2H-1,4-benzoxazin-3(4H)-one] | ≤ 1000 nM
9 | CC(C)C1Oc2c(cccc2-c2cn(C)c(=O)c3[nH]ccc23)NC1=O (centres unmarked) [Example 2, 2-isopropyl-8-(6-methyl-7-oxo-6,7-dihydro-1H-pyrrolo[2,3-c]pyridin-4-yl)-2H-1,4-benzoxazin-3(4H)-one] | ≤ 1000 nM
10 | CC1Oc2c(cccc2-c2cn(C)c(=O)c3[nH]ccc23)NC1=O (centres unmarked) [Example 3, 2-methyl-8-(6-methyl-7-oxo-6,7-dihydro-1H-pyrrolo[2,3-c]pyridin-4-yl)-2H-1,4-benzoxazin-3(4H)-one] | ≤ 1000 nM
11 | CCC1Oc2c(cccc2-c2cn(C)c(=O)c3[nH]ccc23)NC1=O (centres unmarked) [Example 4, 2-ethyl-8-(6-methyl-7-oxo-6,7-dihydro-1H-pyrrolo[2,3-c]pyridin-4-yl)-2H-1,4-benzoxazin-3(4H)-one] | ≤ 1000 nM
12 | Cn1cc(-c2cccc3c2OC(C2CC2)C(=O)N3)c2cc[nH]c2c1=O (centres unmarked) [Example 6, 2-cyclopropyl-8-(6-methyl-7-oxo-6,7-dihydro-1H-pyrrolo[2,3-c]pyridin-4-yl)-2H-1,4-benzoxazin-3(4H)-one] | ≤ 1000 nM
13 | Cn1cc(-c2cccc3c2OC(C2CCOCC2)C(=O)N3)c2cc[nH]c2c1=O (centres unmarked) [Example 7, 8-(6-methyl-7-oxo-6,7-dihydro-1H-pyrrolo[2,3-c]pyridin-4-yl)-2-(tetrahydro-2H-pyran-4-yl)-2H-1,4-benzoxazin-3(4H)-one] | ≤ 1000 nM
14 | CCC1Oc2c(-c3cn(C)c(=O)c4[nH]ccc34)cccc2N(C)C1=O (centres unmarked) [Example 8, 2-ethyl-4-methyl-8-(6-methyl-7-oxo-6,7-dihydro-1H-pyrrolo[2,3-c]pyridin-4-yl)-2H-1,4-benzoxazin-3(4H)-one] | ≤ 1000 nM
15 | COc1cc2c(c(-c3cn(C)c(=O)c4[nH]ccc34)c1)OC(C(C)C)C(=O)N2 (centres unmarked) [Example 9, 2-isopropyl-6-methoxy-8-(6-methyl-7-oxo-6,7-dihydro-1H-pyrrolo[2,3-c]pyridin-4-yl)-2H-1,4-benzoxazin-3(4H)-one] | ≤ 1000 nM
16 | COc1cc(-c2cn(C)c(=O)c3[nH]ccc23)c2c(c1)N(C)C(=O)C(C(C)C)O2 (centres unmarked) [Example 10, 2-isopropyl-6-methoxy-4-methyl-8-(6-methyl-7-oxo-6,7-dihydro-1H-pyrrolo[2,3-c]pyridin-4-yl)-2H-1,4-benzoxazin-3(4H)-one] | ≤ 1000 nM
17 | CNC(=O)CN1C(=O)C(C(C)C)Oc2c(-c3cn(C)c(=O)c4[nH]ccc34)cc(OC)cc21 (centres unmarked) [Example 12, 2-[2-isopropyl-6-methoxy-8-(6-methyl-7-oxo-6,7-dihydro-1H-pyrrolo[2,3-c]pyridin-4-yl)-3-oxo-2,3-dihydro-4H-1,4-benzoxazin-4-yl]-N-methylacetamide] | ≤ 1000 nM
18 | COc1cc(-c2cn(C)c(=O)c3[nH]ccc23)c2c(c1)N(CC(N)=O)C(=O)C(C(C)C)O2 (centres unmarked) [Example 13, 2-[2-isopropyl-6-methoxy-8-(6-methyl-7-oxo-6,7-dihydro-1H-pyrrolo[2,3-c]pyridin-4-yl)-3-oxo-2,3-dihydro-4H-1,4-benzoxazin-4-yl]acetamide] | ≤ 1000 nM
19 | COc1cc(-c2cn(C)c(=O)c3[nH]ccc23)c2c(c1)N(CC(=O)N1CCN(C)CC1)C(=O)C(C(C)C)O2 (centres unmarked) [Example 14, 2-isopropyl-6-methoxy-8-(6-methyl-7-oxo-6,7-dihydro-1H-pyrrolo[2,3-c]pyridin-4-yl)-4-[2-(4-methylpiperazin-1-yl)-2-oxoethyl]-2H-1,4-benzoxazin-3(4H)-one] | ≤ 1000 nM
20 | COc1cc(-c2cn(C)c(=O)c3[nH]ccc23)c2c(c1)N(Cc1ccncc1)C(=O)C(C(C)C)O2 (centres unmarked) [Example 15, 2-isopropyl-6-methoxy-8-(6-methyl-7-oxo-6,7-dihydro-1H-pyrrolo[2,3-c]pyridin-4-yl)-4-(pyridin-4-ylmethyl)-2H-1,4-benzoxazin-3(4H)-one] | ≤ 1000 nM
21 | COc1cc(-c2cn(C)c(=O)c3[nH]ccc23)c2c(c1)N(C(C)C)C(=O)C(C(C)C)O2 (centres unmarked) [Example 16, 2,4-diisopropyl-6-methoxy-8-(6-methyl-7-oxo-6,7-dihydro-1H-pyrrolo[2,3-c]pyridin-4-yl)-2H-1,4-benzoxazin-3(4H)-one] | ≤ 1000 nM
22 | CC(C)C1Oc2c(cc(C#N)cc2-c2cn(C)c(=O)c3[nH]ccc23)NC1=O (centres unmarked) [Example 17, 2-isopropyl-8-(6-methyl-7-oxo-6,7-dihydro-1H-pyrrolo[2,3-c]pyridin-4-yl)-3-oxo-3,4-dihydro-2H-1,4-benzoxazine-6-carbonitrile] | ≤ 1000 nM
23 | CC(C)C1Oc2c(-c3cn(C)c(=O)c4[nH]ccc34)cc(C#N)cc2N(C)C1=O (centres unmarked) [Example 18, 2-isopropyl-4-methyl-8-(6-methyl-7-oxo-6,7-dihydro-1H-pyrrolo[2,3-c]pyridin-4-yl)-3-oxo-3,4-dihydro-2H-1,4-benzoxazine-6-carbonitrile] | ≤ 1000 nM

same assay, conditions: human myeloma cells, 3 days, concentration required for 50% cell death

Row | Compound | IC50
24 | COc1cc2c(c(-c3cn(C)c(=O)c4[nH]ccc34)c1)OC(c1ccccc1)C(=O)N2 (single isomer, unassigned) [Example 24B, 6-methoxy-8-(6-methyl-7-oxo-6,7-dihydro-1H-pyrrolo[2,3-c]pyridin-4-yl)-2-phenyl-2H-1,4-benzoxazin-3(4H)-one] | ≤ 1000 nM
25 | COc1cc2c(c(-c3cn(C)c(=O)c4[nH]ccc34)c1)OC(C1CCCC1)C(=O)N2 (single isomer, unassigned) [Example 35B, 2-Cyclopentyl-6-methoxy-8-(6-methyl-7-oxo-6,7-dihydro-1H-pyrrolo[2,3-c]pyridin-4-yl)-2H-1,4-benzoxazin-3(4H)-one] | ≤ 1000 nM
26 | COc1cc2c(c(-c3cn(C)c(=O)c4[nH]ncc34)c1)OC(C1CCCC1)C(=O)N2 (single isomer, unassigned) [Example 42B, 2-cyclopentyl-6-methoxy-8-(6-methyl-7-oxo-6,7-dihydro-1H-pyrazolo[3,4-c]pyridin-4-yl)-2H-1,4-benzoxazin-3(4H)-one] | ≤ 1000 nM
27 | CC(C)C1Oc2c(cc(S(C)(=O)=O)cc2-c2cn(C)c(=O)c3[nH]ccc23)NC1=O (single isomer, unassigned) [Example 44B, 2-isopropyl-8-(6-methyl-7-oxo-6,7-dihydro-1H-pyrrolo[2,3-c]pyridin-4-yl)-6-(methylsulfonyl)-2H-1,4-benzoxazin-3(4H)-one] | ≤ 1000 nM
28 | CC(C)C1Oc2c(-c3cn(C)c(=O)c4[nH]ccc34)cc(S(C)(=O)=O)cc2N(C)C1=O (single isomer, unassigned) [Example 47B, 2-isopropyl-4-methyl-8-(6-methyl-7-oxo-6,7-dihydro-1H-pyrrolo[2,3-c]pyridin-4-yl)-6-(methylsulfonyl)-2H-1,4-benzoxazin-3(4H)-one] | ≤ 1000 nM
29 | CC(O)c1cc(-c2cn(C)c(=O)c3[nH]ccc23)c2c(c1)N(C)C(=O)C(C)(C)O2 (single isomer, unassigned) [Example 83B, 6-(1-hydroxyethyl)-2,2,4-trimethyl-8-(6-methyl-7-oxo-6,7-dihydro-1H-pyrrolo[2,3-c]pyridin-4-yl)-2H-1,4-benzoxazin-3(4H)-one] | ≤ 1000 nM
